Like-named read-outs stand apart in the source and are kept apart here.
Assays:
[1] = test system: E. coli ATCC 11229
Protocol: (§1) Escherichia coli ATCC 11229 (Culti-loops, Remel Europe, Dartford, Kent, UK) and Pseudomonas aeruginosa ATCC 15442 (Cuti-loops, Remel Europe, Dartford, Kent, UK) were selected as model Gram-negative organisms for the challenge testing of the antimicrobial coatings. Each bacterial strain was streaked for isolated colonies on Tryptic Soy Agar (TSA) plates (Difco, Becton Dickinson, Sparks, Md., U.S.A.) and incubated at 37° C. for 12 to 18 hours. Broth cultures were prepared by first picking 1-2 isolated colonies from TSA plates and inoculating 5 mL Tryptic Soy Broth (TSB; Difco, Becton Dickinson, Sparks, Md., U.S.A.) in a 16 mm test tube. This culture was grown in a shaking water bath at 150 RPM for 8 hours at 37° C. After the eight hours, 125 μL of this culture was added to 50 mL of TSB in a side-arm Klett flask and grown for approximately 8 hours in shaking water bath (150 RPM) at 37° C. The bacterial broths were grown to an A590 of 1.2-1.5, which correlated to approximately 10^9 CFU (colony forming units)/mL. 25 mL of this broth were transferred to a sterile 30 mL Oakridge tube and centrifuged at 12,000×g for 10 minutes at 4° C. (Sorval SS34 rotor) to pelletize the bacteria. The bacterial pellet was washed once and resuspended in 25 mL of phosphate buffer solution (PBS; BBL, FTA Hemaglutination Buffer, Becton Dickinson, Sparks, Md., U.S.A.). The suspension was diluted with PBS to achieve the target range of 10^5-10^6 CFU/mL and used to inoculate the slides containing antibacterial coatings.
The glass slides are then washed with acetone and water.
The 10% substitution on this weight basis corresponds to substitution of one tenth of the total surfactant weight or to 3% of the total composition weight.
Bacterial cultures as prepared and described in Example 12 are applied to the surfactant polymer coated slides as prepared and described in Example 26. All inoculations are performed in a laminar flow hood. Sterilized slides are placed into a sterile Petri dish. Then 0.5 mL of the prepared bacterial suspensions is pipetted directly onto the slide, which spreads across the surface of the coating but remains on top of the slide.
The surviving bacteria from the exposures described in Example 27 are determined as follows: At each time point, 25 mL of sterile PBS is pipetted into the Petri dish completely submerging the slide, and a sterile plastic inoculating loop is used to release any viable bacteria remaining on the surface of the coating. Samples are plated onto TSA plates, and incubated at 37° C. for at least 24 h. Plates containing between 30 and 300 isolated colonies are counted.

[2] = test system: S. aureus; type: cell-based, Staphylococcus aureus; conditions: laboratory acrylic clearcoat, 24 h contact time
From the text: A laboratory experimental solvent based acrylic paint is formulated and then used to challenge S. aureus by adding various levels of the invention silver anionic surfactants as described in Example 33. A binder is made by solution polymerization of butyl acrylate (25% w/w), methylmethacrylate (73.5% w/w), and methacrylic acid (1.5% w/w) in amylacetate using thermal initiation. This solution polymer is then used to make a 60% solids clearcoat binder in xylene/methanol (5:1 by weight). The silver anionic surfactants are dissolved in this same xylene/methanol mixture prior to addition to the clearcoat.

[3] = test system: E. coli; type: cell-based, Escherichia coli; conditions: 24 h contact time
Protocol: as §1
Xylene/methanol (5:1 by weight) is used to dissolve the silver surfactants to facilitate homogeneously mixing with the alkyd resin composition.
A minus sign (−) denotes no growth, a plus sign (+) denotes confluent growth, and a capital P (P) denotes […].
Xylene/methanol (5:1 by weight) is used to dissolve the silver surfactants to facilitate homogeneously mixing with the acrylic resin composition.
The same laboratory experimental solvent based acrylic paint described in Example 34 is used to challenge E. coli by adding various levels of the invention silver anionic surfactants as described in Example 34.
A commercially available 2K epoxy resin paint is obtained from a local paint store (Sherwin Williams High Solids Epoxy Tile Clad HS; Part A B62WC11; Part B B60VZ75, The Sherwin Williams Company) and the same silver anionic surfactants described in Example 35 are used to prepare test coatings on microscope slides containing various levels of silver ion. These surfactants are dissolved in xylene/methanol (5:1 by weight) to facilitate their quantitative addition to the coating mixture.

[4] = 0.061% weight w/w Ag in coating (first column 0.113), polyurethane, microscope slides
[5] = 0.122% weight w/w Ag in coating (first column 0.226), polyurethane, microscope slides
[6] = 24 hour exposure, polyurethane coated lantern slides
[7] = […] weight w/w Ag in coating (first column 0.0574), polyurethane, microscope slides

CCCCC(CC)COC(=O)CC(C(=O)OCC(CC)CCCC)S(=O)(=O)[O-].[Ag+] (stereo not shown) [AgAOT]
CFU/mL of E. coli at 12 hours [1, 4]: 0, 0, 0 CFU/mL
CFU/mL of E. coli at 24 hours [1, 4]: 0, 0, 0 CFU/mL
CFU/mL of E. coli at 12 hours [1, 5]: 0, 0, 0 CFU/mL
CFU/mL of E. coli at 24 hours [1, 5]: 0, 0, 0 CFU/mL
CFU/mL of E. coli at 24 hours ([1]; 0.5% substituted for sodium salt in coating ([…] weight silver), polyurethane coated lantern slides): 0; 0 CFU/mL
CFU/mL of E. coli at 24 hours ([1]; 1.0% substituted for sodium salt in coating (0.061% weight silver), polyurethane coated lantern slides): 0; 0 CFU/mL
CFU/mL of E. coli at 24 hours ([1]; 3.0% substituted for sodium salt in coating ([…] weight silver), polyurethane coated lantern slides): 0; 0 CFU/mL
CFU/mL of E. coli at 24 hours ([1]; 10.0% substituted for sodium salt in coating (0.61% weight silver), polyurethane coated lantern slides): 0; 0 CFU/mL
Overall silver level effective as bactericide ([1]; 12 hours of exposure): 0.06 % weight silver relative to coating weight
Ag+ level resulting in complete killing of the E. coli [1, 6]: ≥ 0.031 % Ag+ relative to coating weig
Level of substitution resulting in complete killing of the E. coli [1, 6]: ≥ 0.5 % weight relative to the 30% N
Overall silver level effective as bactericide ([1]; 24 hours of exposure): 0.006 % weight silver relative to coating weight
CFU/mL of E. coli at 24 hours ([1]; […] weight w/w Ag in coating (first column 0.0226), polyurethane, microscope slides): 0, 0, 0 CFU/mL
CFU/mL of E. coli at 12 hours [1, 7]: 0, 0, 0 CFU/mL
CFU/mL of E. coli at 24 hours [1, 7]: 0, 0, 0 CFU/mL
Silver level with partial growth [2]: this lowest level
E. coli growth on coating ([3]; alkyd resin paint, 0.0012 weight % Ag in coating): +
E. coli growth on coating ([3]; alkyd resin paint, 0.003 weight % Ag in coating): +
E. coli growth on coating ([3]; alkyd resin paint, 0.012 weight % Ag in coating): −
E. coli growth on coating ([3]; alkyd resin paint, 0.03 weight % Ag in coating): −
E. coli growth on coating ([3]; alkyd resin paint, 0.06 weight % Ag in coating): −
E. coli growth on coating ([3]; alkyd resin paint, 0.12 weight % Ag in coating): −
Silver level effective at preventing any growth ([3]; alkyd resin paint): 0.012 % w/w
Silver level partially effective ([3]; alkyd resin paint): 0.006 % w/w
E. coli growth on coating ([3]; commercial 2K epoxy paint, 0.0012 weight % Ag in coating): +
E. coli growth on coating ([3]; commercial 2K epoxy paint, 0.003 weight % Ag in coating): +
E. coli growth on coating ([3]; commercial 2K epoxy paint, 0.006 weight % Ag in coating): +
E. coli growth on coating ([3]; commercial 2K epoxy paint, 0.012 weight % Ag in coating): +
E. coli growth on coating ([3]; commercial 2K epoxy paint, 0.03 weight % Ag in coating): +
E. coli growth on coating ([3]; commercial 2K epoxy paint, 0.06 weight % Ag in coating): −
E. coli growth on coating ([3]; commercial 2K epoxy paint, 0.12 weight % Ag in coating): −
Silver level giving complete inhibition of growth ([3]; commercial 2K epoxy paint): 0.06 % w/w
E. coli growth on coating ([3]; commercial solvent borne acrylate paint, 0.0012 weight % Ag in coating): +
E. coli growth on coating ([3]; commercial solvent borne acrylate paint, 0.003 weight % Ag in coating): +
E. coli growth on coating ([3]; commercial solvent borne acrylate paint, 0.006 weight % Ag in coating): +
E. coli growth on coating ([3]; commercial solvent borne acrylate paint, 0.012 weight % Ag in coating): +
E. coli growth on coating ([3]; commercial solvent borne acrylate paint, 0.06 weight % Ag in coating): −
E. coli growth on coating ([3]; commercial solvent borne acrylate paint, 0.12 weight % Ag in coating): −
Silver level partially effective ([3]; commercial solvent borne acrylic paint): 0.03 % Ag w/w
E. coli growth on coating ([3]; laboratory solvent borne acrylate paint, 0.0012 weight % Ag in coating): +
E. coli growth on coating ([3]; laboratory solvent borne acrylate paint, 0.003 weight % Ag in coating): +
E. coli growth on coating ([3]; laboratory solvent borne acrylate paint, 0.006 weight % Ag in coating): +
E. coli growth on coating ([3]; laboratory solvent borne acrylate paint, 0.012 weight % Ag in coating): +
E. coli growth on coating ([3]; laboratory solvent borne acrylate paint, 0.03 weight % Ag in coating): +
E. coli growth on coating ([3]; laboratory solvent borne acrylate paint, 0.06 weight % Ag in coating): −
E. coli growth on coating ([3]; laboratory solvent borne acrylate paint, 0.12 weight % Ag in coating): −

Source: patent publication US20090060984A1, “ANIONIC SURFACTANTS LETHAL TO GRAM-POSITIVE BACTERIA” (priority 2007, published 2009)
